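The compound was tested at five concentrations on cells cultured in 96-well plates, with a 48-hour exposure period. Abbreviation: GI50, concentration required for 50% inhibition of growth.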 Activity calls are given as the source filed them. Cut-off read from the data, not from the text of the source: active = GI50 up to about 1.1 µM and inactive = higher.
Assays:
Test in all cases: NCI-60 cell line screen, 48 h
[1] = test system: M14
[2] = test system: LOX IMVI
[3] = test system: RPMI-8226
[4] = test system: SF-268
[5] = test system: NCI-H522
[6] = test system: Hs-578T
[7] = test system: SK-OV-3
[8] = test system: PC-3
[9] = test system: SR
[10] = test system: DU-145
[11] = test system: 786-0
[12] = test system: SK-MEL-5
[13] = test system: SW-620
[14] = test system: HCC 2998
[15] = test system: HT-29
[16] = test system: MCF7
[17] = test system: NCI-H226
[18] = test system: U-251
[19] = test system: UO-31
[20] = test system: HOP-92
[21] = test system: A549
[22] = test system: K562
[23] = test system: OVCAR-8
[24] = test system: EKVX
[25] = test system: HL-60
[26] = test system: CAKI-1
[27] = test system: SN12C
[28] = test system: MDA-MB-231
[29] = test system: OVCAR-5
[30] = test system: MOLT-4
[31] = test system: Malme-3M
[32] = test system: TK-10
[33] = test system: ACHN
[34] = test system: T47D
[35] = test system: HCT-116
[36] = test system: NCI-H460
[37] = test system: SF-295
[38] = test system: UACC-62
[39] = test system: RXF 393
[40] = test system: UACC-257
[41] = test system: A498
[42] = test system: SNB-19
[43] = test system: COLO 205
[44] = test system: NCI/ADR-RES
[45] = test system: MDA-MB-435
[46] = test system: SK-MEL-28
[47] = test system: KM12
[48] = test system: NCI-H23
[49] = test system: HCT-15
[50] = test system: SF-539
[51] = test system: OVCAR-3
[52] = test system: CCRF-CEM
[53] = test system: HOP-62
[54] = test system: MDA-N

Measured: GI50

COc1ccc(/N=C2\C(=O)Nc3ccc(Br)cc32)cc1
inactive: [1] 17.5 µM | [2] 10.1 µM | [3] 5.83 µM | [4] 18.4 µM | [5] 9.38 µM | [6] 41.5 µM | [7] 24.3 µM | [8] 25.3 µM | [9] 3.58 µM | [10] 32.3 µM | [11] 16.3 µM | [12] 11.2 µM | [13] 16 µM | [14] 19.2 µM | [15] 23.4 µM | [16] 14.6 µM | [17] 16.2 µM | [18] 22.9 µM | [19] 9.82 µM | [20] 18.2 µM | [21] 24.2 µM | [22] 8.67 µM | [23] 14.9 µM | [24] 17.2 µM | [25] 15.6 µM | [26] 14.4 µM | [27] 17.2 µM | [28] 13.9 µM | [29] 23.2 µM | [30] 16.6 µM | [31] 19.8 µM | [32] 23.6 µM | [33] 15.4 µM | [34] 18.3 µM | [35] 14.2 µM | [36] 21.8 µM | [37] 22.8 µM | [38] 4.89 µM | [39] 18.2 µM | [40] 20.7 µM | [41] 38.8 µM | [42] 33.4 µM | [43] 15.7 µM | [44] 18.7 µM | [45] 13.2 µM | [46] 31.3 µM | [47] 10.7 µM | [48] 18.2 µM | [50] 16.5 µM | [51] 21.7 µM | [52] 13.4 µM | [53] 29.2 µM | [54] 13.9 µM
14.3 µM: [49]
